Assay results taken from patent publication US11779600B2, “Methods of treating or preventing alzheimer's disease and associated conditions” (CEDARS-SINAI MEDICAL CENTER, priority 2016, dated 2023).

What was measured:
[1] = test system: bone marrow-derived macrophages (MΦ^BM); test: Fibrillar Aβ1-42 phagocytosis assay in bone marrow-derived macrophages; type: cell-based, mouse
Description: Lyophilized non-fluoro amyloid-β1-42 peptide (#20276; Anaspec) was initially monomerized by dissolving it in ice-cold HFIP (hexafluoroisopropanol) (#52512; Sigma) to a final concentration of 1 mM and then aliquoted in sterile siliconized microcentrifuge tubes. The HFIP was first evaporated while in the sterile hood and then under vacuum conditions in a SpeedVac for 2 h to remove any trace of HFIP; the peptide film was stored at −20° C. until use. To induce fibril formation, fluoro (HiLyte647; #64161; Anaspec) and non-fluoro amyloid-β1-42 films were resuspended in media to which 10% of sterile NaOH 60 mM was first added and the media were vortexed for 30 s. Then, a sterile 45% H2O and a sterile 45% solution of 20 mM NaH2PO4+Na2HPO4 (pH 7.4) were added, and the media were vortexed again and incubated on a shaker for 2 weeks at 37° C. Pre-formed amyloid-β1-42 fibrils were then sonicated for 60 s and diluted to 100 nM using the same media prior to the phagocytosis assay.
To test amyloid-β phagocytosis by macrophage, in repeated experiments monocytes were isolated from the bone marrow of wild-type mice (n=18 mice) and differentiated into macro-phage by 7-day cultivation in complete RPMI-1640 medium (#21870; Life Technologies) with 10% serum and 20 ng/ml MCSF (#315-02; PeproTech). Bone marrow-derived macrophages (MΦBM) were generated from femurs and tibiae cultured for 6-7 days in complete RPMI 1640 medium (Life Technologies) with 10% FBS, 100 U/ml penicillin, 100 μg/ml streptomycin, 2 mM L-glutamine and 20 ng/ml MCSF (PeproTech). Primary cultures of macrophage were then plated at 1.2×10^5 cells per well (3-4 wells for each condition) in 24-well tissue-culture plates on glass cover-slips overnight. Next, macrophages were either treated with 30 μg/ml GA (Copaxone®; TEVA Neuroscience), Brefeldin A (BFA; Sigma, 1X), or 10 μM Minocycline (Sigma) for the duration of 1, 3, or 24 h, or not treated (control group). Before addition of fibrillar amyloid-β1-42, the cells were chilled in a 4° C. ice bath for 5 min; immediately after addition of the preformed fibrillar amyloid-β1-42 (100 nM), the plates were centrifuged at 515g in 25° C. followed by incubation at 37° C. for 30 or 60 min. The cells were then rinsed with amyloid-β-free medium to remove non-incorporated amyloid-β and later washed twice with PBS. Methanol (99.8%) at −20° C. for 20 min or 4% paraformaldehyde at room temperature for 12 min was used for fixation of the cells followed by repeated washes with PBS. […] The fluorescent signal and its total area were determined and quantified by the conversion of individual images to greyscale and standardizing to baseline using histogram-based thresholds with NIH ImageJ software. […]

MΦ^BM = test: Macrophage cell length measurement; type: cell-based, mouse; settings: GA treatment (FIG. 16A-16B)
Description: A set of three Stealth OPN siRNAs made up of 25-bp duplex oligoribonucleotides each were used with sequences corresponding to the sense and antisense strands of OPN (Invitrogen). Equal amounts (100 nM each) of siRNAs were mixed and diluted in OptiMEM (Gibco) to finalconcentration of 100nmol/L, then transiently transfected into MΦ^BM using Lipofectamine® RNAiMAX Transfection Reagent (Invitrogen), per manufacturer's protocol. Control macrophages were transfected with Stealth RNAi™ siRNA Negative Control. MΦ^BM were incubated for 48 hours after transfection, and were used for subsequent experiments.
The long and short axes of cells were manually measured in μm from microscopic images (McWhorter et al., Proceedings of the National Academy of Sciences of the U.S. Pat. No. 2,013,110:17253-17258) using length tools in the Axiovision Rel. 4.8 software package. At least 100 cells were examined in each experiment where individual cells were assayed by microscopy.
Macrophages can acquire distinct phenotypes and biological functions depending on their microenvironment. Past studies reported that OPN promotes macrophages to switch to the anti-inflammatory M2 phenotype. The possible role of OPN in macrophage polarization towards an anti-inflammatory phenotype, which has been associated with elongated cell shape was explored. […]

Substance: glatiramer acetate [GA]
- increase of Aβ phagocytosis ([1]; 24 hours treatment, then fAβ1-42 for 30 min, quantitative ICC (FIG. 16E)): 2.5 fold
- increase of fibrillar Aβ1-42 uptake in MΦ^BM ([1]; GA pretreated, 100 nM fibrillar Aβ1-42 for 30 min, qICC and ELISA): 2.5-2.85 fold
- rise in fAβ1-42 uptake ([1]; GA-treated MΦ (FIG. 5D)): 2.8 fold
- cell length increase (MΦ^BM): 1.3 fold
